Experimental data published in patent US9700052B2, “Methods and compositions comprising steroid honey bee feeding inhibitors” (Iowa State University Research Foundation, Inc., priority 2015, dated 2017).

System: honey bees, Apis mellifera
Experiment: Artificial styrofoam flower foraging assay with 20% sucrose nectar tube
Type: in vivo
Conditions: for Consumed, ml (nectar) / # feeding: n = 4
Method: To determine how the phytoecdysteroid inhibits bee foraging, we utilized artificial flowers so that the compounds can be added to a nectar source or sprayed on the surface of the artificial flower. The artificial flowers were made from green florist styrofoam blocks (12 cm^2) and petals made from blue and green tape. In the center of the styrofoam block a 2 ml test tube was inserted that contained a 20% sucrose solution in water as a substitute for nectar. The same array of holders was used as in the previous study (FIG. 2).
To determine if the repellent activity occurs in a concentration dependent manner we utilized the artificial flowers treated with various concentrations of the steroids in the nectar tube. In addition to observing the number of honey bees feeding from the nectar tube we measured the amount of nectar consumed after the observation period of about 45 min. The purified phytoecdysteroid was effective at 2.5 and 0.4 mg/ml in reducing the number of honey bees feeding on the nectar compared to lower concentrations. […] The pure 20-OH-ecdysone was also inhibitory at 1 mg/ml and 0.2 mg/ml with more foraging at the lower concentration. Cucurbitacin B was inhibitory at 0.5 mg/ml but not at 0.1 mg/ml.

[1] = 0.01 mg/ml in 2 ml nectar tube, about 45 min
[2] = 0.01 mg/ml in nectar tube, about 45 min
[3] = 0.1 mg/ml in 2 ml nectar tube, about 45 min
[4] = 0.1 mg/ml in nectar tube, about 45 min

C[C@H]([C@H](O)CCC(C)(C)O)[C@H]1CC[C@@]2(O)C3=CC(=O)[C@@H]4C[C@@H](O)[C@@H](O)C[C@]4(C)[C@H]3CC[C@]12C [Pure ecdsyone, ecdysone]
inhibition of honey bees feeding on the nectar (0.01 mg/ml in nectar tube): not | inhibition of honey bees feeding on the nectar (0.1 mg/ml in nectar tube): inhibitory | inhibition of honey bees feeding on the nectar (1 mg/ml in nectar tube): inhibitory | Consumed, ml (nectar) (Table 5, 0.01 mg/ml in 2 ml nectar tube): 0.8 mL | # feeding (Table 5, 0.01 mg/ml in nectar tube): 24 | Consumed, ml (nectar) (Table 5, 0.1 mg/ml in 2 ml nectar tube): 0.3 mL | # feeding (Table 5, 0.1 mg/ml in nectar tube): 0 | Consumed, ml (nectar) (Table 5, 1 mg/ml in 2 ml nectar tube): 0.2 mL | # feeding (Table 5, 1 mg/ml in nectar tube): 0

CC(C)(O)CC[C@@H](O)[C@](C)(O)[C@H]1CC[C@@]2(O)C3=CC(=O)[C@@H]4C[C@@H](O)[C@@H](O)C[C@]4(C)[C@H]3CC[C@]12C [20-hydroxyecdysone]
Consumed, ml (nectar) [1]: 1.1 mL | # feeding [2]: 37 | Consumed, ml (nectar) [3]: 1.7 mL | # feeding [4]: 56 | Consumed, ml (nectar) (0.2 mg/ml in 2 ml nectar tube, about 45 min): 0.25 mL | inhibition of honey bees feeding on the nectar (0.2 mg/ml in nectar tube): inhibitory | # feeding (0.2 mg/ml in nectar tube, about 45 min): 17 | Consumed, ml (nectar) (1 mg/ml in 2 ml nectar tube, about 45 min): 0.05 mL | inhibition of honey bees feeding on the nectar (1 mg/ml in nectar tube): inhibitory | # feeding (1 mg/ml in nectar tube, about 45 min): 2

CC(=O)OC(C)(C)/C=C/C(=O)[C@](C)(O)[C@H]1C(O)C[C@@]2(C)[C@@H]3CC=C4[C@H](CC(O)C(=O)C4(C)C)[C@@]3(C)C(=O)C[C@]12C (stereo partly drawn) [Cucurbitacin B]
Consumed, ml (nectar) [1]: 1.9 mL | # feeding [2]: 4 | Consumed, ml (nectar) [3]: 1.2 mL | inhibition of honey bees feeding on the nectar (0.1 mg/ml in nectar tube): not | # feeding [4]: 3 | Consumed, ml (nectar) (0.5 mg/ml in 2 ml nectar tube, about 45 min): 0.3 mL | inhibition of honey bees feeding on the nectar (0.5 mg/ml in nectar tube): inhibitory | # feeding (0.5 mg/ml in nectar tube, about 45 min): 8
